Data reported in ChEMBL document CHEMBL1144314, “Synthesis and antibacterial activity of 1-[1,2,4-triazol-3-yl] and 1-[1,3,4-thiadiazol-2-yl]-3-methylthio-6,7-dihydrobenzo[c]thiophen-4(5H)ones” (2005).

What was measured:
Type in all cases: functional
[1] = test system: Staphylococcus epidermidis; assay: Antimicrobial activity against Staphylococcus epidermidis was determined
[2] = test system: Bacillus subtilis; assay: Antimicrobial activity of the compound against Bacillus subtilis was determined
[3] = test system: Staphylococcus aureus; assay: Antimicrobial activity of the compound against Staphylococcus aureus was determined
[4] = test system: Aspergillus niger; assay: Antimicrobial activity against Aspergillus niger was determined
[5] = test system: Candida albicans; assay: Antimicrobial activity against Candida albicans was determined
[6] = test system: Pseudomonas aeruginosa; assay: Antimicrobial activity against Pseudomonas aeruginosa was determined
[7] = test system: Bacillus cereus; assay: Antimicrobial activity against Bacillus cereus was determined

Row | Molecule | Zone of inhibition [1] [mm] | Zone of inhibition [2] [mm] | Zone of inhibition [3] [mm] | Zone of inhibition [4] [mm] | Zone of inhibition [5] [mm] | other results
1 | CCCCn1c(S)nnc1-c1sc(SC)c2c1CCCC2=O | 26 | 14 | 17 |  |  | 
2 | C[C@@H]1[C@H](O)[C@@H](C)/C=C/C=C/C=C/C=C/C=C/C=C/C=C/[C@H](O[C@@H]2O[C@H](C)[C@@H](O)[C@H](N)[C@@H]2O)C[C@@H]2O[C@](O)(C[C@@H](O)C[C@@H](O)[C@H](O)CC[C@@H](O)C[C@@H](O)CC(=O)O[C@H]1C)C[C@H](O)[C@H]2C(=O)O [AMPHOTERICIN B] |  |  |  | 22 | 22 | 
3 | CSc1sc(-c2nnc(SC)n2-c2ccc([N+](=O)[O-])cc2)c2c1C(=O)CCC2 | 24 | 21 | 18 |  |  | Zone of inhibition [6]: 14 mm; Zone of inhibition [7]: 12 mm
4 | CNc1nnc(-c2sc(SC)c3c2CCCC3=O)s1 |  | 28 |  | 11 | 12 | 
5 | CSc1sc(-c2nnc(Nc3ccc([N+](=O)[O-])cc3)s2)c2c1C(=O)CCC2 |  | 33 |  | 10 | 14 | 
6 | CSc1sc(-c2nnc(S)n2-c2ccc([N+](=O)[O-])cc2)c2c1C(=O)CCC2 | 25 | 23 | 18 |  |  | Zone of inhibition [6]: 14 mm
7 | CCCCNc1nnc(-c2sc(SC)c3c2CCCC3=O)s1 |  | 22 |  | 9 | 11 | 
8 | COc1ccc(-n2c(S)nnc2-c2sc(SC)c3c2CCCC3=O)cc1 |  | 11 |  |  |  | 
9 | CCNc1nnc(-c2sc(SC)c3c2CCCC3=O)s1 |  | 20 |  | 8 | 13 | 
10 | GENTAMICIN |  |  |  |  |  | inhibition zone (IZ) [1]: 20 mm; inhibition zone (IZ) [2]: 30 mm; inhibition zone (IZ) [7]: 28 mm
11 | O=C1CN(/N=C/c2ccc([N+](=O)[O-])o2)C(=O)N1 [NITROFURANTOIN] |  | 18 | 21 |  |  | Zone of inhibition [6]: 21 mm; Zone of inhibition [7]: 20 mm
12 | CSc1sc(-c2nnc(NC3CCCCC3)s2)c2c1C(=O)CCC2 |  |  |  | 12 |  | 
13 | CCCCn1c(SC)nnc1-c1sc(SC)c2c1CCCC2=O | 26 | 16 | 17 |  |  | Zone of inhibition [7]: 16 mm
